# Measured values published in KR20130112248A, “피라졸로피리미딘 유도체 화합물, 이를 포함하는 산화질소 생성 억제용 조성물 및 뇌신경 질환 예방 및 치료용 약학적 조성물” (한국과학기술연구원, priority 2012, dated 2013).
# Test system: NO production in BV-2 cells [NO 생성; BV-2 세포]
# Assay: Nitric oxide (NO) quantification (nitrite, Griess reaction) in LPS-activated BV-2 cells
# Format: cell-based
# Details: 20 μM, LPS 0.2 ㎍/mL, 24 h co-treatment, nitrite by Griess at 540 nm
row,Compound,NO (% of LPS)
1,"1-(2-메톡시펜에틸)-N-(4-메톡시벤질)-6-(메틸설포닐)-1H-피라졸로[3,4-d]피리미딘-4-아민 [화합물 23zb]",49±2.9 % of LPS
2,"1-(N-t-Boc-아미노에틸)-4-(1-하이드록시에틸)아미노-6-(메틸티오)피라졸로[3,4-d]피리미딘 [화합물 14b]",102±4 % of LPS
3,"1-t-뷰틸-4-(1-하이드록시에틸)아미노-6-(메틸티오)피라졸로[3,4-d]피리미딘 [화합물 17d]",93±2 % of LPS
4,"2-(4-(1-페닐에틸아미노)-6-(메틸티오)-1H-피라졸로[3,4-d]피리미딘-1-일)에틸카바메이트 [화합물 14g]",33.5±1.3 % of LPS
5,"2-(4-(4-플루오로벤질아미노)-6-(메틸티오)-1H-피라졸로[3,4-d]피리미딘-1-일)에틸카바메이트 [화합물 14f]",38.3±1.3 % of LPS

# Same assay, conditions: 20 μM, LPS 0.2 ㎍/mL, 24 h co-treatment, nitrite by Griess at 540 nm, 1440 min
row,Compound,NO (% of LPS)
1,"CC(Nc1nc(S(C)(=O)=O)nc2c1cnn2Cc1ccccc1)c1ccccc1 (single isomer, unassigned) [화합물 23q, 1-벤질-6-(메틸설포닐)-N-(1-페닐에틸)-1H-피라졸로[3,4-d]피리미딘-4-아민]",122±2.8 % of LPS
2,"CC(Nc1nc(S(C)(=O)=O)nc2c1cnn2Cc1ccccc1)c1ccccc1 (single isomer, unassigned) [화합물 23r, 1-벤질-6-(메틸설포닐)-N-(1-페닐에틸)-1H-피라졸로[3,4-d]피리미딘-4-아민]",87±7.1 % of LPS
3,"CSc1nc(NCc2ccccn2)c2cn[nH]c2n1 [6h, 4-(피리딘-2-일)메틸아미노-6-(메틸티오)피라졸로[3,4-d]피리미딘]",97±5 % of LPS

# Same assay, conditions: Mus musculus, 20 μM, LPS 0.2 ㎍/mL, 24 h co-treatment, nitrite by Griess at 540 nm
row,Compound,activity at 20 µM [%]
1,"CSc1nc(N2CCN(C)CC2)c2cn[nH]c2n1 [6n, 4-(4-메틸피페라지노)-6-(메틸티오)피라졸로[3,4-d]피리미딘]",114 ± 9

# Same assay, conditions: Mus musculus, BV-2, 24 h, 20 μM, LPS 0.2 ㎍/mL, 24 h co-treatment, nitrite by Griess at 540 nm
row,Compound,activity at 20 µM [%]
1,"CSc1nc(Cl)c2cnn(C)c2n1 [5a, 1-메틸-4-클롤로-6-(메틸티오)피라졸로[3,4-d]피리미딘]",51 ± 2
2,"C=CCn1ncc2c(Cl)nc(SC)nc21 [5b, 1-알릴-4-클로로-6-(메틸티오)피라졸로[3,4-d]피리미딘]",63 ± 8
3,"CSc1nc(Cl)c2cnn(CCOC3CCCCO3)c2n1 (stereo not drawn) [5c, 1-[2-(테트라하이드로피란-2-일옥시)에틸]-4-클로로-6-(메틸티오)피라졸로[3,4-d]피리미딘]",49 ± 9
4,"CSc1nc(Cl)c2cnn(CCNC(=O)OC(C)(C)C)c2n1 [5d, 1-[N-t-Boc-(2-아미노에틸)]-4-클로로-6-(m메틸티오)피라졸로[3,4-d]피리미딘]",48 ± 4
5,"CSc1nc(Cl)c2cnn(-c3ccccc3)c2n1 [5e, 1-페닐-4-클로로-6-(메틸티오)피라졸로[3,4-d]피리미딘]",50 ± 7
6,"CSc1nc(Cl)c2cnn(Cc3ccccc3)c2n1 [5f, 1-벤질-4-클로로-6-(메틸티오)피라졸로[3,4-d]피리미딘]",69 ± 3
7,"CSc1nc(Cl)c2cnn(C(C)(C)C)c2n1 [5g, 1-t-뷰틸-4-클로로-6-(메틸티오)피라졸로[3,4-d]피리미딘]",15 ± 18
8,"CSc1nc(Cl)c2cnn(-c3ccc(F)cc3)c2n1 [5h, 1-(4-플루오로페닐)-4-클로로-6-(메틸티오)피라졸로[3,4-d]피리미딘]",9 ± 42.2
9,"CSc1nc(Cl)c2cnn(-c3ccc(C)cc3)c2n1 [5i, 1-(4-메틸페닐)-4-클로로-6-(메틸티오)피라졸로[3,4-d]피리미딘]",54 ± 2.7
10,"COc1cccc(CCn2ncc3c(Cl)nc(SC)nc32)c1 [5j, 1-(3-메톡시펜에틸)-4-클로로-6-(메틸티오)-1H-피라졸로[3,4-d]피리미딘]",5 ± 49.7
11,"COc1ccccc1CCn1ncc2c(Cl)nc(SC)nc21 [5k, 1-(2-메톡시펜에틸)-4-클로로-6-(메틸티오)-1H-피라졸로[3,4-d]피리미딘]",5 ± 62.9
12,"C=CCNc1nc(SC)nc2[nH]ncc12 [6b, 4-알릴아미노-6-(메틸티오)피라졸로[3,4-d]피리미딘]",100 ± 4
13,"CSc1nc(NCCc2ccccc2)c2cn[nH]c2n1 [6c, 4-펜에틸아미노-6-(메틸티오)피라졸로[3,4-d]피리미딘]",91 ± 4
14,"CSc1nc(NCc2ccc(F)cc2)c2cn[nH]c2n1 [6d, 4-(4-플루오로벤질)아미노-6-(메틸티오)피라졸로[3,4-d]피리미딘]",84 ± 8
15,"CCCCNc1nc(SC)nc2[nH]ncc12 [6e, 4-n-뷰틸아미노-6-(메틸티오)피라졸로[3,4-d]피리미딘]",83 ± 9
16,"CSc1nc(NCCO)c2cn[nH]c2n1 [6f, 4-(1-하이드록시에틸)아미노-6-(메틸티오)피라졸로[3,4-d]피리미딘]",87 ± 6
17,"CSc1nc(NCCN2CCCCC2)c2cn[nH]c2n1 [6g, 4-(2-피페리딘-1-일)에틸아미노-6-(메틸티오)피라졸로[3,4-d]피리미딘]",102 ± 6
18,"COc1cccc(CNc2nc(SC)nc3[nH]ncc23)c1 [6i, 4-(3-메톡시벤질)아미노-6-(메틸티오)피라졸로[3,4-d]피리미딘]",48 ± 10
19,"CSc1nc(NC(C)C2CCCCC2)c2cn[nH]c2n1 (stereo not drawn) [6j, 4-(1-사이클로헥실에틸)아미노-6-(메틸티오)피라졸로[3,4-d]피리미딘]",66 ± 10

row,Compound,activity at 20 µM [%]
1,"CSc1nc(N[C@H](C)c2ccccc2)c2cn[nH]c2n1 [6k, (R)-4-(1-페닐에틸)아미노-6-(메틸티오)피라졸로[3,4-d]피리미딘]",16 ± 17
2,"CSc1nc(NC(C)(C)CO)c2cn[nH]c2n1 [6l, 4-(2-하이드록시-1-다이메틸에틸)아미노-6-(메틸티오)피라졸로[3,4-d]피리미딘]",125 ± 14
3,"CSc1nc(NCCCn2ccnc2)c2cn[nH]c2n1 [6m, 4-(3-이미다졸-1-일)프로판아미노-6-(메틸티오)피라졸로[3,4-d]피리미딘]",97 ± 6
4,"CSc1nc(N(CCO)CCO)c2cn[nH]c2n1 [6o, 4-(디-2-하이드로에틸)아미노-6-(메틸티오)피라졸로[3,4-d]피리미딘]",106 ± 10
5,"CSc1nc(NCc2ccc(Cl)cc2)c2cn[nH]c2n1 [6p, 4-(4-클로로벤질)아미노-6-(메틸티오)피라졸로[3,4-d]피리미딘]",50 ± 23
6,"CSc1nc(NCc2ccc(C)cc2)c2cn[nH]c2n1 [6q, 4-(4-메틸벤질)아미노-6-(메틸티오)피라졸로[3,4-d]피리미딘]",90 ± 15
7,"CSc1nc(NCc2ccccc2C)c2cn[nH]c2n1 [6r, 4-(2-메틸벤질)아미노-6-(메틸티오)피라졸로[3,4-d]피리미딘]",64 ± 3
8,"CSc1nc(N2CCCCC2)c2cn[nH]c2n1 [6s, 4-피페리디노-6-(메틸티오)피라졸로[3,4-d]피리미딘]",85 ± 15
9,"CSc1nc(NC2CCCCC2)c2cn[nH]c2n1 [6t, 4-사이클로헥실아미노-6-(메틸티오)피라졸로[3,4-d]피리미딘]",106 ± 5
10,"CCN(CC)c1nc(SC)nc2[nH]ncc12 [6u, 4-다이에틸아미노-6-(메틸티오)피라졸로[3,4-d]피리미딘]",87 ± 8
11,"COc1ccccc1CNc1nc(SC)nc2[nH]ncc12 [6v, 4-(2-메톡시벤질)아미노-6-(메틸티오)피라졸로[3,4-d]피리미딘]",36 ± 7
12,"CSc1nc(NCc2ccccc2Cl)c2cn[nH]c2n1 [6w, N-(2-클로로벤질)-6-(메틸티오)-1H-피라졸로[3,4-d]피리미딘-4-아민]",46 ± 2.9
13,"COc1ccc(CNc2nc(SC)nc3[nH]ncc23)cc1 [6x, N-(4-메톡시벤질)-6-(메틸티오)-1H-피라졸로[3,4-d]피리미딘-4-아민]",115 ± 3.2
14,"CSc1nc(NCc2ccccn2)c2cn[nH]c2n1 [6y, 6-(메틸티오)-N-((피리딘-2-일)메틸)-1H-피라졸로[3,4-d]피리미딘-4-아민]",90 ± 2.9
15,"CSc1ncc2cnn(-c3ccccc3)c2n1 [7b, 1-페닐-6-(메틸티오)피라졸로[3,4-d]피리미딘]",78 ± 4
16,"CSc1nc2c(cnn2-c2ccccc2)c(=O)[nH]1 [8b, 1-페닐-6-(메틸티오)피라졸로[3,4-d]피리미딘-4-온]",75 ± 3
17,"CSc1nc2c(cnn2-c2ccccc2)c(=S)[nH]1 [9b, 1-페닐-6-(메틸티오)피라졸로[3,4-d]피리미딘-4-티온]",94 ± 7
18,"CSc1nc2c(cnn2Cc2ccccc2)c(=S)[nH]1 [9c, 1-벤질-6-(메틸티오)피라졸로[3,4-d]피리미딘-4-티온]",79 ± 5

# Same assay, conditions: Mus musculus, BV-2, 24 h, 30 μM, LPS 0.2 ㎍/mL, 24 h co-treatment, nitrite by Griess at 540 nm
row,Compound,activity at 30 µM [%]
1,"CSc1nc(Cl)c2cnn(-c3ccc(F)cc3)c2n1 [5h, 1-(4-플루오로페닐)-4-클로로-6-(메틸티오)피라졸로[3,4-d]피리미딘]",59.6
2,"CSc1ncc2cn[nH]c2n1 [7a, 6-(메틸티오)피라졸로[3,4-d]피리미딘]",79 ± 1
3,"CSc1nc2[nH]ncc2c(=O)[nH]1 [8a, 6-(메틸티오)피라졸로[3,4-d]피리미딘-4-온]",75 ± 0.9
4,"CSc1nc2[nH]ncc2c(=S)[nH]1 [9a, 6-(메틸티오)피라졸로[3,4-d]피리미딘-4-티온]",98 ± 5.5

# Same assay, conditions: Mus musculus, BV-2, 24 h, 50 μM (printed in cell of the 30 μM column), LPS 0.2 ㎍/mL, 24 h co-treatment
row,Compound,activity at 50 µM [%]
1,"CSc1nc(NCc2ccccc2)c2cn[nH]c2n1 [6a, 4-벤질아미노-6-(메틸티오)피라졸로[3,4-d]피리미딘]",35 ± 4
